Reference: US10913738B2 (BRISTOL-MYERS SQUIBB COMPANY, priority 2017, dated 2021)
Where two headings read alike, the source gives them in different places.

Experiments:
[1] = molecular target: T1, His-GST-TVMV-hRIPK1(1-324) (Homo sapiens, UniProt Q13546); test: RIPK1 HTRF Binding Assay
T1 construct: The coding region of human RIPK1(1-324) flanked by NdeI site at 5′ end; made in house; host or cells: Spodoptera frugiperda (Sf9) insect cells, baculovirus
T1 sequence (Q13546 1-324): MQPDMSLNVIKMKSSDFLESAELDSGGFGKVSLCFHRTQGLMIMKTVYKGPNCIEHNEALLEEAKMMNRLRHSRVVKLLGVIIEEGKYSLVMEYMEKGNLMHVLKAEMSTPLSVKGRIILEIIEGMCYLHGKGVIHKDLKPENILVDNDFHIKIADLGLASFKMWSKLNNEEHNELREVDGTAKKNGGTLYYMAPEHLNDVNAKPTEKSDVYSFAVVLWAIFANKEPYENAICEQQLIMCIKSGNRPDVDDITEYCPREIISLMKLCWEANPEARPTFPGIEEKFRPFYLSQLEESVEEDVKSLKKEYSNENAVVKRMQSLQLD

[2] = system: MLKL phosphorylation in HT29-L23 human colorectal adenocarcinoma cells; test: MLKL Phosphorylation High-Content Assay; format: cell-based; details: Homo sapiens
Method in brief: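 Cells incubated six hours at 37° C., then phospho-MLKL (S358) immunostained overnight at 4° C. and imaged by high-content microscopy. Phosphorylation quantified as mean circ-ring average intensity ratio; IC50 and Ymax from 4-parameter logistic fits.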

[3] = x marks IC50 class >200 nM, read-out: RIPK1 HTRF binding >200 nM
[4] = x marks IC50 class 20-200 nM, read-out: pMLKL cell activity 20-200 nM
[5] = x marks IC50 class <20 nM, read-out: RIPK1 HTRF binding <20 nM
[6] = x marks IC50 class <20 nM, read-out: pMLKL cell activity <20 nM
[7] = x marks IC50 class >200 nM, read-out: pMLKL cell activity >200 nM
[8] = x marks IC50 class 20-200 nM, read-out: RIPK1 HTRF binding 20-200 nM

Row | SMILES | IC50 [2, 4] [µM] | IC50 [1, 5] [µM] | IC50 [1, 8] [µM] | further results
1 | CCOc1ncc(-c2ccn3nc(N)nc3c2)cc1C(=O)NCC1(c2ccccc2F)CC1 [Example 274, 5-{2-amino-[1,2,4]triazolo[1,5-a]pyridin-7-yl}-2-ethoxy-N-{[1-(2-fluorophenyl)cyclopropyl]methyl}pyridine-3-carboxamide] | 0.02 to 0.2 |  |  | IC50 [1, 3]: > 0.2 µM
2 | CCOc1ncc(-c2ccn3nc(N)nc3c2)cc1C(=O)NCc1ccccc1Sc1ccccc1CO [Example 275, 5-{2-amino-[1,2,4]triazolo[1,5-a]pyridin-7-yl}-2-ethoxy-N-[(2-{[2-(hydroxymethyl)phenyl]sulfanyl}phenyl)methyl]pyridine-3-carboxamide] |  | < 0.02 |  | IC50 [2, 6]: < 0.02 µM
3 | CCOc1ncc(-c2ccn3nc(N)nc3c2)cc1C(=O)NCC[C@@H](O)c1ccc(Cl)cc1 [Example 276, 5-{2-amino-[1,2,4]triazolo[1,5-a]pyridin-7-yl}-N-[(3R)-3-(4-chlorophenyl)-3-hydroxypropyl]-2-ethoxypyridine-3-carboxamide] |  |  |  | IC50 [1, 3]: > 0.2 µM; IC50 [2, 7]: > 0.2 µM
4 | CCOc1ncc(-c2ccn3nc(N)nc3c2)cc1C(=O)NCc1ccccc1Oc1ccccc1 [Example 277, 5-{2-amino-[1,2,4]triazolo[1,5-a]pyridin-7-yl}-2-ethoxy-N-[(2-phenoxyphenyl)methyl]pyridine-3-carboxamide] |  | < 0.02 |  | IC50 [2, 6]: < 0.02 µM
5 | CCOc1ncc(-c2ccn3nc(N)nc3c2)cc1C(=O)NCC[C@H](O)c1ccc(Cl)cc1 [Example 278, 5-{2-amino-[1,2,4]triazolo[1,5-a]pyridin-7-yl}-N-[(3S)-3-(4-chlorophenyl)-3-hydroxypropyl]-2-ethoxypyridine-3-carboxamide] |  |  | 0.02 to 0.2 | IC50 [2, 7]: > 0.2 µM
6 | CCOc1ncc(-c2ccn3nc(N)nc3c2)cc1C(=O)Nc1cnn(Cc2ccccc2)c1 [Example 279, 5-{2-amino-[1,2,4]triazolo[1,5-a]pyridin-7-yl}-N-(1-benzyl-1H-pyrazol-4-yl)-2-ethoxypyridine-3-carboxamide] | 0.02 to 0.2 |  | 0.02 to 0.2 | 
7 | CCOc1ncc(-c2ccn3nc(N)nc3c2)cc1C(=O)NCCC(C)c1ccccc1 (centres unmarked) [Example 280, 5-{2-amino-[1,2,4]triazolo[1,5-a]pyridin-7-yl}-2-ethoxy-N-(3-phenylbutyl)pyridine-3-carboxamide] | 0.02 to 0.2 | < 0.02 |  | 
8 | CCOc1ncc(-c2ccn3nc(N)nc3c2)cc1C(=O)NCc1cc(F)cc(F)c1OCC1CC1 [Example 281, 5-{2-amino-[1,2,4]triazolo[1,5-a]pyridin-7-yl}-N-{[2-(cyclopropylmethoxy)-3,5-difluorophenyl]methyl}-2-ethoxypyridine-3-carboxamide] | 0.02 to 0.2 | < 0.02 |  | 
9 | [2H]C([2H])([2H])Oc1nc(C)c(-c2ccn3nc(N)nc3c2)cc1C(=O)NCc1cc(F)cc(F)c1OC([2H])([2H])C1CC1 [Example 282, 5-(2-Amino-[1,2,4]triazolo[1,5-a]pyridin-7-yl)-N-(2-(cyclopropylmethoxy-d2)-3,5-difluorobenzyl)-2-(methoxy-d3)-6-methylnicotinamide] |  | < 0.02 |  | IC50 [2, 6]: < 0.02 µM
10 | [2H]C([2H])([2H])Oc1ncc(-c2ccn3nc(N)nc3c2)cc1C(=O)NCc1cc(F)cc(F)c1OC([2H])([2H])C1CC1 [Example 283, 5-(2-amino-[1,2,4]triazolo[1,5-a]pyridin-7-yl)-N-(2-(cyclopropylmethoxy-d2)-3,5-difluorobenzyl)-2-(methoxy-H3)nicotinamide] |  | < 0.02 |  | IC50 [2, 6]: < 0.02 µM
11 | [2H]C([2H])([2H])Oc1ncc(-c2ccn3nc(N)nc3c2)cc1C(=O)NC([2H])([2H])c1cc(C(F)(F)F)ccc1F [Example 284, 5-(2-amino-[1,2,4]triazolo[1,5-a]pyridin-7-yl)-N-((2-fluoro-5-(trifluoromethyl)phenyl)methyl-d2)-2-(methoxy-d3)nicotinamide] | 0.02 to 0.2 | < 0.02 |  | 
12 | [2H]C([2H])([2H])Oc1ncc(-c2ccn3nc(N)nc3c2)cc1C(=O)N[C@H](C)c1cc(OC(F)(F)F)ccc1F [Example 285, (R)-5-(2-amino-[1,2,4]triazolo[1,5-a]pyridin-7-yl)-N-(1-(2-fluoro-5-(trifluoromethoxy)phenyl)ethyl)-2-(methoxy-d3)nicotinamide] | 0.02 to 0.2 |  | 0.02 to 0.2 | 
13 | [2H]C([2H])([2H])[C@@H](NC(=O)c1cc(-c2ccn3nc(N)nc3c2)c(C)nc1C)c1cc(OC(F)(F)F)ccc1F [Example 286, (R)-5-(2-amino-[1,2,4]triazolo[1,5-a]pyridin-7-yl)-N-(1-(2-fluoro-5-(trifluoromethoxy)phenyl)ethyl-2,2,2-d3)-2,6-dimethylnicotinamide] | 0.02 to 0.2 | < 0.02 |  | 
14 | [2H]C([2H])(Oc1c(F)cc(F)cc1CNC(=O)c1cc(-c2ccn3nc(N)nc3c2)c(C)nc1C)C1CC1 [Example 287, 5-(2-amino-[1,2,4]triazolo[1,5-a]pyridin-7-yl)-N-(2-(cyclopropylmethoxy-d2)-3,5-difluorobenzyl)-2,6-dimethylnicotinamide] |  | < 0.02 |  | IC50 [2, 6]: < 0.02 µM
15 | [2H]C([2H])(NC(=O)c1cc(-c2ccn3nc(N)nc3c2)c(C)nc1C)c1cc(C(F)(F)F)ccc1F [Example 288, 5-(2-amino-[1,2,4]triazolo[1,5-a]pyridin-7-yl)-N-((2-fluoro-5-(trifluoromethyl)phenyl)methyl-d2)-2,6-dimethylnicotinamide] | 0.02 to 0.2 | < 0.02 |  | 
16 | [2H]C([2H])([2H])[C@@H](NC(=O)c1cc(-c2ccn3nc(N)nc3c2)c(C)nc1C)c1cc(C(F)(F)F)ccc1F [Example 289, (R)-5-(2-amino-[1,2,4]triazolo[1,5-a]pyridin-7-yl)-N-(l-(2-fluoro-5-(trifluoromethyl)phenyl)ethyl-2,2,2-d3)-2,6-dimethylnicotinamide] | 0.02 to 0.2 | < 0.02 |  | 
17 | Cc1nc(C)c(-c2ccn3nc(N)nc3c2)cc1C(=O)NCc1cc(OCC2CC2)ccc1F [Example 290, 5-(2-amino-[1,2,4]triazolo[1,5-a]pyridin-7-yl)-N-(5-(cyclopropylmethoxy)-2-fluorobenzyl)-2,6-dimethylnicotinamide] | 0.02 to 0.2 | < 0.02 |  | 
18 | Cc1nc(C)c(-c2ccn3nc(N)nc3c2)cc1C(=O)NCc1c(F)cccc1OCC(F)(F)F [Example 291, 5-(2-amino-[1,2,4]triazolo[1,5-a]pyridin-7-yl)-N-(2-fluoro-6-(2,2,2-trifluoroethoxy)benzyl)-2,6-dimethylnicotinamide] | 0.02 to 0.2 |  | 0.02 to 0.2 | 
19 | Cc1nc(C)c(-c2ccn3nc(N)nc3c2)cc1C(=O)NCc1cc(F)ccc1OCC(F)(F)F [Example 292, 5-(2-amino-[1,2,4]triazolo[1,5-a]pyridin-7-yl)-N-(5-fluoro-2-(2,2,2-trifluoroethoxy)benzyl)-2,6-dimethylnicotinamide] | 0.02 to 0.2 |  | 0.02 to 0.2 | 
20 | Cc1nc(C)c(-c2ccn3nc(N)nc3c2)cc1C(=O)NCc1cccc(OCC(F)(F)F)c1 [Example 293, 5-(2-amino-[1,2,4]triazolo[1,5-a]pyridin-7-yl)-2,6-dimethyl-N-(3-(2,2,2-trifluoroethoxy)benzyl)nicotinamide] | 0.02 to 0.2 |  | 0.02 to 0.2 | 
21 | Cc1nc(C)c(-c2ccn3nc(N)nc3c2)cc1C(=O)NCc1ccccc1OCC(F)(F)F [Example 294, 5-(2-amino-[1,2,4]triazolo[1,5-a]pyridin-7-yl)-2,6-dimethyl-N-(2-(2,2,2-trifluoroethoxy)benzyl)nicotinamide] |  |  | 0.02 to 0.2 | IC50 [2, 7]: > 0.2 µM
22 | Cc1nc(C)c(-c2ccn3nc(N)nc3c2)cc1C(=O)NCc1cc(F)cc(F)c1OC1CCOC(C)C1 (centres unmarked) [Example 296, 5-(2-amino-[1,2,4]triazolo[1,5-a]pyridin-7-yl)-N-(3,5-difluoro-2-((2-methyltetrahydro-2H-pyran-4-yl)oxy)benzyl)-2,6-dimethylnicotinamide] | 0.02 to 0.2 |  | 0.02 to 0.2 | 
23 | Cc1nc(C)c(-c2ccn3nc(N)nc3c2)cc1C(=O)NCc1cc(F)cc(F)c1OC1CC(C)OC(C)C1 (centres unmarked) [Example 297, 5-(2-amino-[1,2,4]triazolo[1,5-a]pyridin-7-yl)-N-(2-((2,6-dimethyltetrahydro-2H-pyran-4-yl)oxy)-3,5-difluorobenzyl)-2,6-dimethylnicotinamide] | 0.02 to 0.2 |  | 0.02 to 0.2 | 
24 | Cc1ncc(-c2ccn3nc(N)nc3c2)cc1C(=O)NCc1cc(F)ccc1-c1ccn(C)n1 [Example 298, 5-(2-amino-[1,2,4]triazolo[1,5-a]pyridin-7-yl)-N-(5-fluoro-2-(1-methyl-1H-pyrazol-3-yl)benzyl)-2-methylnicotinamide] |  |  | 0.02 to 0.2 | IC50 [2, 7]: > 0.2 µM
25 | [2H]C([2H])([2H])[C@@H](NC(=O)c1cc(-c2ccn3nc(N)nc3c2)cnc1C)c1cc(OC(F)(F)F)ccc1F [Example 299, (R)-5-(2-amino-[1,2,4]triazolo[1,5-a]pyridin-7-yl)-N-(1-(2-fluoro-5-(trifluoromethoxy)phenyl)ethyl-2,2,2-d3)-2-methylnicotinamide] |  | < 0.02 |  | IC50 [2, 6]: < 0.02 µM
